Columns and labels:
Human neurokinin (NK1) = target: T1, Human neurokinin (NK1) (Homo sapiens, UniProt P25103); test: Radioligand binding, human neurokinin NK1 membranes, filtration, [125I]-Substance P; conditions: compound at 10 μM; [125I]-Substance P, human NK1 membranes
T1 construct: purchased Perkin Elmer Biosignal
How it was run: (§1)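 Filtration binding on cloned human receptor membranes (1 Unit/well), [125I]-Substance P for NK1 and [3H]-Diprenorphine for KOP, 1 h at room temperature. Filters PEI-presoaked, washed with cold 50 mM Tris-HCl pH 7.4, counted by scintillation; percent inhibition calculated, reference ligand defining non-specific binding.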

Human melanocortin (MC5) = target: T2, Human melanocortin (MC5) (Homo sapiens, UniProt P33032); test: Radioligand binding, human melanocortin MC5 membranes, FlashPlate, [125I]-NDP-αMSH; conditions: compound at 10 μM, [125I]-NDP-αMSH, human MC5 membranes
T2 construct: purchased Perkin Elmer Biosignal
How it was run: (§2)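 Cloned human receptor membranes were coated onto FlashPlate wells and incubated with radioligand and compound (added from a 0.5 mM DMSO daughter plate) for 1 hour at room temperature in the dark. Scintillation counting gave percent inhibition, with DMSO defining total and reference ligand defining non-specific binding.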

Human opioid (ORL1) = target: T3, Human opioid (ORL1) (Homo sapiens, UniProt P41146); test: Radioligand binding, human opioid ORL1 membranes, FlashPlate, [125I]-Nociceptin; conditions: compound at 10 μM, [125I]-Nociceptin, human ORL1 membranes
T3 construct: purchased Perkin Elmer Biosignal
How it was run: as §2

Human δ-opioid (DOP) = target: T4, Human δ-opioid (DOP) (Homo sapiens, UniProt P41143); test: Radioligand binding, human δ-opioid (DOP) membranes, FlashPlate, [3H]-Bremazocine; conditions: compound at 10 μM; [3H]-Bremazocine, human DOP membranes
T4 construct: purchased Perkin Elmer Biosignal
How it was run: as §2

Human Melanocortin (MC4) = target: T5, Human Melanocortin (MC4) (Homo sapiens, UniProt P32245); test: Radioligand binding, human melanocortin MC4 membranes, FlashPlate, [125I]-NDP-αMSH; conditions: compound at 10 μM, [125I]-NDP-αMSH, human MC4 membranes
T5 construct: purchased Perkin Elmer Biosignal
How it was run: as §2

Human Melanocortin (MC3) = target: T6, Human Melanocortin (MC3) (Homo sapiens, UniProt P41968); test: Radioligand binding, human melanocortin MC3 membranes, FlashPlate, [125I]-NDP-αMSH; conditions: compound at 10 μM, [125I]-NDP-αMSH, human MC3 membranes
T6 construct: purchased Perkin Elmer Biosignal
How it was run: as §2

Human κ-Opioid (KOP) = target: T7, Human κ-Opioid (KOP) (Homo sapiens, UniProt P41145); test: Radioligand binding, human κ-opioid (KOP) membranes, filtration, [3H]-Diprenorphine; conditions: compound at 10 μM, [3H]-Diprenorphine, human KOP membranes
T7 construct: purchased Perkin Elmer Biosignal
How it was run: as §1

[1] = target: T8, Human melanin-concentrating hormone (MCH1) (Homo sapiens, UniProt Q99705); test: Radioligand binding, human melanin-concentrating hormone MCH1 membranes, FlashPlate, [125I]-S36057; conditions: compound at 10 μM, [125I]-S36057, human MCH1 membranes
T8 construct: purchased Perkin Elmer Biosignal
How it was run: as §2

Human μ-opioid (MOP) = target: T9, Human μ-opioid (MOP) (Homo sapiens, UniProt P35372); test: Radioligand binding, human μ-opioid (MOP) membranes, FlashPlate, [3H]-Naloxone; conditions: compound at 10 μM, [3H]-Naloxone, human MOP membranes
T9 construct: purchased Perkin Elmer Biosignal
How it was run: as §2

Mouse urotensin (mUR2) = target: T10, Mouse urotensin (mUR2) (Mus musculus, UniProt Q8VIH9); test: Radioligand binding, mouse urotensin mUR2 membranes, FlashPlate, [125I]-Urotensin II; conditions: compound at 10 μM; [125I]-Urotensin II, mouse mUR2 membranes
T10 construct: purchased Perkin Elmer Biosignal
T10 sequence (Q8VIH9 1-385): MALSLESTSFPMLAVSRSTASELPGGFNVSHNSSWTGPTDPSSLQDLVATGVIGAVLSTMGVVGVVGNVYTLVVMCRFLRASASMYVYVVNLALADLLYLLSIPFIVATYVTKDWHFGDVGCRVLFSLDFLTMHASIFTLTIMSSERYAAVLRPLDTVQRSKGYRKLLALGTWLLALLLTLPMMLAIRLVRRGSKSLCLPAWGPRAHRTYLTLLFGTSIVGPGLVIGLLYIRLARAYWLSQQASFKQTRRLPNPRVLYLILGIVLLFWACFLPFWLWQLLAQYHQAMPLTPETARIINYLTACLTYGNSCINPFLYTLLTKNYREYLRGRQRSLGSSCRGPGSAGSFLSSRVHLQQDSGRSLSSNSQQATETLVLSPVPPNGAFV
How it was run: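 Cloned mouse urotensin (mUR2) receptor membranes from Perkin Elmer Biosignal were immobilized in FlashPlate microplates using a proprietary coating. Each well got 19.5 μl buffer, then 0.5 μl of DMSO, reference ligand, or compound. Adding 5 μl of [125I]-Urotensin II, diluted to 5× final concentration in binding buffer, started binding. Plates were sealed with TopSeal-A and incubated 1 hour at room temperature in the dark. Wells were counted for 30 seconds each on a TopCount after a 60-second delay, and percentage inhibition was calculated.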

[2] = target: T11, Human neuropeptide Y (NPY-Y1) (Homo sapiens, UniProt P25929); test: Radioligand binding, human neuropeptide Y NPY-Y1 membranes, FlashPlate, [125I]-PYY; conditions: compound at 10 μM; [125I]-PYY, human NPY-Y1 membranes
T11 construct: purchased Perkin Elmer Biosignal
T11 sequence (P25929 1-384): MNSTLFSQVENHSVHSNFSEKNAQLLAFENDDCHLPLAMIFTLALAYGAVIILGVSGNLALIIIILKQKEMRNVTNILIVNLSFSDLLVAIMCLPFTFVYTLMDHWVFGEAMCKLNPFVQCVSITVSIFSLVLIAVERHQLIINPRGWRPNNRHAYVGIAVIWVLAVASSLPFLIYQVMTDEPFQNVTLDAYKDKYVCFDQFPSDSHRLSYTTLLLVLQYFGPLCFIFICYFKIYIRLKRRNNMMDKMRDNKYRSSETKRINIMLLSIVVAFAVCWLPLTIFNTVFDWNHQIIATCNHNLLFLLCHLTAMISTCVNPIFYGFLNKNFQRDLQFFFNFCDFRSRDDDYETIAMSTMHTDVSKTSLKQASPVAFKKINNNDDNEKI
How it was run: as §2

T7 sequence (P41145 whole entry): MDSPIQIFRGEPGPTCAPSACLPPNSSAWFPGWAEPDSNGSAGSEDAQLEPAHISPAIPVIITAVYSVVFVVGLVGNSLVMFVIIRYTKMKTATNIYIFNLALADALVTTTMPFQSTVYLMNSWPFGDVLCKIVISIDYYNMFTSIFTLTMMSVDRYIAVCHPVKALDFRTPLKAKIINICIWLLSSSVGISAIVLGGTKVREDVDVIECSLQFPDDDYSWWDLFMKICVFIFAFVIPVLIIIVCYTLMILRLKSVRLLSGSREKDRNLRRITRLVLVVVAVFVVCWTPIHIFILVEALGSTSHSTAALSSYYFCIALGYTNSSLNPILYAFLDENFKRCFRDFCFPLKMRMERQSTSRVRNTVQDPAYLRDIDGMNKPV
T3 sequence (P41146 whole entry): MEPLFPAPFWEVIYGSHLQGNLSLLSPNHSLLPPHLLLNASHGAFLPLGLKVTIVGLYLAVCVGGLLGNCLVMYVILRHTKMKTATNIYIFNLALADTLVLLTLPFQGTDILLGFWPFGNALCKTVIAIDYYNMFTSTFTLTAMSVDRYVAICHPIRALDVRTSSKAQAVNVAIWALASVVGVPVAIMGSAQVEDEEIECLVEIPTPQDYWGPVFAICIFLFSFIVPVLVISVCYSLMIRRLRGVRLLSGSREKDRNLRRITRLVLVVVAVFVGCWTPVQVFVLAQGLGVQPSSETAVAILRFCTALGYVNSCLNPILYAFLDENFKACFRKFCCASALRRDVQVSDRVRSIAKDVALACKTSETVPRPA
T6 sequence (P41968 whole entry): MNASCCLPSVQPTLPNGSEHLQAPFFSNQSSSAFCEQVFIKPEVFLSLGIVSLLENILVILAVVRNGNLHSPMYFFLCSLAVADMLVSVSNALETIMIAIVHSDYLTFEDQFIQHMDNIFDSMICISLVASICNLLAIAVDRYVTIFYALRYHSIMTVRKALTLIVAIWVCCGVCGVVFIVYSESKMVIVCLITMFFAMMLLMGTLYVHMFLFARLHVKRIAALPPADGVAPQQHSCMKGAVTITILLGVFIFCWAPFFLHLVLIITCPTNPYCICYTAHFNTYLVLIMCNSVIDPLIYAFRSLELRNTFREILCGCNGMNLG
T8 sequence (Q99705 whole entry): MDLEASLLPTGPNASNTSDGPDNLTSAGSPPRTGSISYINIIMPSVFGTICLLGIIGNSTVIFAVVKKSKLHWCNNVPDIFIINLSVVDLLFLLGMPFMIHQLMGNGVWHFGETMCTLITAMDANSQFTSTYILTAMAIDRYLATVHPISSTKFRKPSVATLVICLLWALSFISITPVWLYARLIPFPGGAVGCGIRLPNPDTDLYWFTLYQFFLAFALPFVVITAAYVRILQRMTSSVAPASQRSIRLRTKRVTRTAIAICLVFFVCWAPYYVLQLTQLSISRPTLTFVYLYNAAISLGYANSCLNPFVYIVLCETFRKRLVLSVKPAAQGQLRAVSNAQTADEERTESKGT
T5 sequence (P32245 whole entry): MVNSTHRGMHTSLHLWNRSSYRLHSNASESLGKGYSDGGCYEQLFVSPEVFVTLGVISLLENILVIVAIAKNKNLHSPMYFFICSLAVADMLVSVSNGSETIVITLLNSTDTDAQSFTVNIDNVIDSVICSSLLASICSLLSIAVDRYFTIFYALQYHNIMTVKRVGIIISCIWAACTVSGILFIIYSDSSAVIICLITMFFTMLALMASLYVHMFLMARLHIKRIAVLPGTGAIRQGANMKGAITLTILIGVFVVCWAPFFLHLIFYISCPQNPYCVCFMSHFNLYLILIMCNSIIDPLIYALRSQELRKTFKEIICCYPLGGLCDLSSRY
T2 sequence (P33032 whole entry): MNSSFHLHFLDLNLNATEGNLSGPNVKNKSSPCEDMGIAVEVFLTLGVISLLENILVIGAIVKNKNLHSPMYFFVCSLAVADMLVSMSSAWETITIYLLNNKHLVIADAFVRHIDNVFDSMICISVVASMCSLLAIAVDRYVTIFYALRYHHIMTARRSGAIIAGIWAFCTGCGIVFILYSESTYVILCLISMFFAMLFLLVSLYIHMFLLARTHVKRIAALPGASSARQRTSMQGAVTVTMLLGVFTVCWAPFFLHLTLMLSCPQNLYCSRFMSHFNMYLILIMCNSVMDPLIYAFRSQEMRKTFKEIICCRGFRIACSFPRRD
T4 sequence (P41143 whole entry): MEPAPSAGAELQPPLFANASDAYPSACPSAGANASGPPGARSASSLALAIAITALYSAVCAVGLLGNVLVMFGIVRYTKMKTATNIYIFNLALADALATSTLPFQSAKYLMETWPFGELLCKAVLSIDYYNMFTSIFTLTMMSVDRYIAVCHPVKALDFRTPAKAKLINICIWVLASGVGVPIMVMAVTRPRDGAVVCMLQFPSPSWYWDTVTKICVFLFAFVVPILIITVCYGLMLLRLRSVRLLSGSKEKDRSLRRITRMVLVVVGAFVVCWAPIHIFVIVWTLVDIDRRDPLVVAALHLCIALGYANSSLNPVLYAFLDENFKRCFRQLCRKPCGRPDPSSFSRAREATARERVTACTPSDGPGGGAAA
T1 sequence (P25103 whole entry): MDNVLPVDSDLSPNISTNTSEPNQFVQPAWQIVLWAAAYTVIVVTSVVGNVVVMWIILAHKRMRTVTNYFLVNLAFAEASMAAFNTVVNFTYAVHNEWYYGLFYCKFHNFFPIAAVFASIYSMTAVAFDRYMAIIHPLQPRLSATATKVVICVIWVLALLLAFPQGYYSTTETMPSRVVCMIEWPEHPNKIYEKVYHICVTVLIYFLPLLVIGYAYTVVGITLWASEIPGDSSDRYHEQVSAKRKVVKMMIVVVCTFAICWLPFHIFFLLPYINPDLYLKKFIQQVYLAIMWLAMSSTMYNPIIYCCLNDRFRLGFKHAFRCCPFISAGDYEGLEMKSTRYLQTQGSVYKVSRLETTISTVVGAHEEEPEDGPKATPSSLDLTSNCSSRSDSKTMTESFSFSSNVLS
T9 sequence (P35372 whole entry): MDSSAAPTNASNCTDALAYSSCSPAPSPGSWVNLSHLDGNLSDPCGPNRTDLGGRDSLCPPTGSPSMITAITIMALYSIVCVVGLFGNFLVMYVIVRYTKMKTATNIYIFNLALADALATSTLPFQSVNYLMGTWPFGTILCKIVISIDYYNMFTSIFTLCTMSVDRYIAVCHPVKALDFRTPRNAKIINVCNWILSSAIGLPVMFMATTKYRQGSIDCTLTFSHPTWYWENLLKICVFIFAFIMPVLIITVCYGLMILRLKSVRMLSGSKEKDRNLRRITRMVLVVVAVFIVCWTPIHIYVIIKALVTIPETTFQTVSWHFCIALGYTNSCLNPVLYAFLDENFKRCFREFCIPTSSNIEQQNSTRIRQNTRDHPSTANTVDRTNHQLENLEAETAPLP

Compound	A8: inhibition of radioligand binding (Human neurokinin (NK1))	A5: inhibition of radioligand binding (Human melanocortin (MC5))	A10: inhibition of radioligand binding (Human opioid (ORL1))	A1: inhibition of radioligand binding (Human δ-opioid (DOP))	A4: inhibition of radioligand binding (Human Melanocortin (MC4); 10 µM)	A3: inhibition of radioligand binding (Human Melanocortin (MC3); 10 µM)	A2: inhibition of radioligand binding (Human κ-Opioid (KOP))	A6: inhibition of radioligand binding [1]	A7: inhibition of radioligand binding (Human μ-opioid (MOP))	A11: inhibition of radioligand binding (Mouse urotensin (mUR2))	A9: inhibition of radioligand binding [2]	A4: inhibition of radioligand binding (Human Melanocortin (MC4))	A3: inhibition of radioligand binding (Human Melanocortin (MC3))	A5: inhibition of radioligand binding (Human melanocortin (MC5); 10 µM)	A10: inhibition of radioligand binding (Human opioid (ORL1); 10 µM)	A2: inhibition of radioligand binding (Human κ-Opioid (KOP); 10 µM)	A6: inhibition of radioligand binding ([1]; 10 µM)	A7: inhibition of radioligand binding (Human μ-opioid (MOP); 10 µM)
NCCC(=O)N[C@H]1C(OCc2ccc3ccccc3c2)O[C@H](COCc2ccc(Cl)cc2)[C@@H](O)[C@@H]1OCc1ccc(Cl)cc1 (stereo partly shown) [compound 440]	+ (“+” indicates greater than 50% inhibition at 10 μM)	+ (“+” indicates greater than 50% inhibition at 10 μM)	− (“−” indicates less than 50% inhibition at 10 μM)	− (“−” indicates less than 50% inhibition at 10 μM)	− (“−” indicates less than 50% inhibition at 10 μM)	− (“−” indicates less than 50% inhibition at 10 μM)	− (“−” indicates less than 50% inhibition at 10 μM)	+ (“+” indicates greater than 50% inhibition at 10 μM)	− (“−” indicates less than 50% inhibition at 10 μM)	− (“−” indicates less than 50% inhibition at 10 μM)	− (“−” indicates less than 50% inhibition at 10 μM)							
NCCC(=O)N[C@H]1C(OCc2ccc3ccccc3c2)O[C@H](COCc2ccc(Cl)cc2)[C@@H](O)[C@@H]1OCc1ccc(Cl)cc1 (stereo partly shown) [compound 441]	+ (“+” indicates greater than 50% inhibition at 10 μM)	+ (“+” indicates greater than 50% inhibition at 10 μM)	− (“−” indicates less than 50% inhibition at 10 μM)	− (“−” indicates less than 50% inhibition at 10 μM)	+ (“+” indicates greater than 50% inhibition at 10 μM)	+ (“+” indicates greater than 50% inhibition at 10 μM)	− (“−” indicates less than 50% inhibition at 10 μM)	+ (“+” indicates greater than 50% inhibition at 10 μM)	− (“−” indicates less than 50% inhibition at 10 μM)	− (“−” indicates less than 50% inhibition at 10 μM)	− (“−” indicates less than 50% inhibition at 10 μM)							
NCCC(=O)N[C@H]1C(OCc2ccc3ccccc3c2)O[C@H](COCc2ccc3ccccc3c2)[C@@H](O)[C@@H]1OCc1ccc2ccccc2c1 (stereo partly shown) [compound 442]	+ (“+” indicates greater than 50% inhibition at 10 μM)	+ (“+” indicates greater than 50% inhibition at 10 μM)	+ (“+” indicates greater than 50% inhibition at 10 μM)	− (“−” indicates less than 50% inhibition at 10 μM)			− (“−” indicates less than 50% inhibition at 10 μM)	+ (“+” indicates greater than 50% inhibition at 10 μM)	− (“−” indicates less than 50% inhibition at 10 μM)	− (“−” indicates less than 50% inhibition at 10 μM)	− (“−” indicates less than 50% inhibition at 10 μM)	+ (“+” indicates greater than 50% inhibition at 10 μM)	+ (“+” indicates greater than 50% inhibition at 10 μM)					
NCCC(=O)N[C@H]1C(OCc2ccc3ccccc3c2)O[C@H](COCc2ccc3ccccc3c2)[C@@H](O)[C@@H]1OCc1ccc2ccccc2c1 (stereo partly shown) [compound 443]	+ (“+” indicates greater than 50% inhibition at 10 μM)	+ (“+” indicates greater than 50% inhibition at 10 μM)	+ (“+” indicates greater than 50% inhibition at 10 μM)	− (“−” indicates less than 50% inhibition at 10 μM)			− (“−” indicates less than 50% inhibition at 10 μM)	+ (“+” indicates greater than 50% inhibition at 10 μM)	− (“−” indicates less than 50% inhibition at 10 μM)	− (“−” indicates less than 50% inhibition at 10 μM)	− (“−” indicates less than 50% inhibition at 10 μM)	+ (“+” indicates greater than 50% inhibition at 10 μM)	+ (“+” indicates greater than 50% inhibition at 10 μM)					
NCCC(=O)N[C@H]1C(OCc2ccc3ccccc3c2)O[C@H](COCc2ccccc2)[C@@H](O)[C@@H]1OCc1ccc2ccccc2c1 (stereo partly shown) [compound 444]	+ (“+” indicates greater than 50% inhibition at 10 μM)			− (“−” indicates less than 50% inhibition at 10 μM)	− (“−” indicates less than 50% inhibition at 10 μM)	− (“−” indicates less than 50% inhibition at 10 μM)				− (“−” indicates less than 50% inhibition at 10 μM)	− (“−” indicates less than 50% inhibition at 10 μM)			− (“−” indicates less than 50% inhibition at 10 μM)	− (“−” indicates less than 50% inhibition at 10 μM)	− (“−” indicates less than 50% inhibition at 10 μM)	− (“−” indicates less than 50% inhibition at 10 μM)	− (“−” indicates less than 50% inhibition at 10 μM)

From patent publication US20080009418A1, “Selective Inhibitors” (Alchemia LTD., priority 2004, published 2008)
